# Test results from patent US8580122B2, “Hybrid chemical/mechanical method and apparatus for inactivating and removing pharmaceuticals and other contaminants from water” (priority 2004, dated 2013).
# Structures can show the parent of a compound that is named as a salt. Where two headings read alike, the source gives them in different places.
# Assays:
# [1] = wastewater treatment plant; cited from earlier work
# [2] = epilimnion of Lake Greifensee; cited from earlier work
# [3] = laboratory-scale activated sludge plants; cited from earlier work
# [4] = cited from earlier work; for biodegradability in the ZWT: result in words
# [5] = cited from earlier work; for biodegradability in the CBT: result in words; for biodegradation in the CBT, test prolonged: prolonged to 40 days
# [6] = result in words; cited from earlier work
# [7] = cited from earlier work
# [8] = eight German STPs; cited from earlier work
# [9] = result in words; cited from earlier work; remark: listed apart in the source
# [10] = cited from earlier work; remark: listed apart in the source
# [11] = result in words; cited from earlier work; remark: listed apart in the source
# fecal coliforms = experiment: sulfur dioxide treatment of effluent, Saticoy-Jose Florez Wastewater Treatment Plant; settings: effluent undergoing sulfur dioxide treatment
# Excerpt: The destruction of odor causing microbes feeding on the water stops further CO2 production, and may be employed where the wastewater treatment plant is mandated to reduce these carbon dioxide emissions. Also, if there is significant carbon in the suspended solids, most perchlorates and chlorates will have been reduced on contact with the solids. The separation and disposal of the solids also removes most of the adsorbed microbes. Under this wastewater treatment scenario, the sulfur dioxide reduction treatment is more for acidification, inactivating of certain chemicals such as Chromium VI susceptible to acid reduction, adding sulfurous and sulfate ions, and chemical dewatering of the solids. […] This disinfection level is suitable in California for gray water land application. Consequently, the sulfur dioxide was used primarily to acid reduce pharmaceuticals, and condition the solids and separated wastewater for land application.
# [12] = computer model, binding to sludge solids; cited from earlier work
# [13] = result in words; cited from earlier work; remark: listed apart in the source
# [14] = result in words; cited from earlier work; remark: listed apart in the source
# [15] = pilot sewage plant and anoxic biofilm reactor
compound,measurement,setting,value
"Oc1cc(Cl)ccc1Oc1ccc(Cl)cc1Cl [triclosan, 2,4,4′-trichloro2′-hydroxyphenyl ether]",fate: biological degradation,[1],79%
same,overall elimination rate due to photochemical degradation,[2],0.03 day⁻¹
O=P1(N(CCCl)CCCl)NCCCO1 (stereo not shown) [cyclophosphamide],biodegradability,[3],poor biodegradability
same,biodegradability in the ZWT,[4],poor biodegradability
same,biodegradability in the CBT,[5],poor biodegradability
CN(C/C=C/c1ccccc1)Cc1cccc2ccccc12 [naftifine],light sensitivity,[6],light sensitive
CC(C)Cc1ccc(C(C)C(=O)O)cc1 (stereo not shown) [ibuprofen],biological degradation,[7]; oxic biofilm reactor,high degree of degradation
same,biological degradation,[7]; [15],partially degraded
CN(C(=O)CO)c1c(I)c(C(=O)NCC(O)CO)c(I)c(C(=O)NCC(O)CO)c1I (stereo not shown) [iomeprol],degradation or absorption during sewage treatment,[8],not significantly degraded or absorbed
CN/C(=N/CCSCc1nc[nH]c1C)NC#N [cimetidine],direct photolysis,[9],resistant to direct photolysis
Cc1cccc(N(C)C(=S)Oc2ccc3ccccc3c2)c1 [tolnaftate],light sensitivity,[6],light sensitive
C[C@H](O)C(=O)Nc1c(I)c(C(=O)NC(CO)CO)c(I)c(C(=O)NC(CO)CO)c1I [iopamidol],degradation or absorption during sewage treatment,[8],not significantly degraded or absorbed
CC1(C)S[C@@H]2[C@H](NC(=O)Cc3ccccc3)C(=O)N2[C@H]1C(=O)O [penicillin G],"biodegradation in the CBT, test prolonged",[5],35%
same,biodegradation in the CBT (removed / biodegraded),"[5]; regular test period, 28 days printed for penicillin G",approximately 27%
same,biodegradability in the CBT,[5],None of the test compounds met the criteria for ready biodegradability
O=C(O)Cc1ccccc1Nc1c(Cl)cccc1Cl [diclofenac],biological degradation,[7]; [15],partially degraded
same,degraded,[10]; entering a Swiss lake,up to 90%
same,reduction on incubation in the dark,[10]; fortified lake water,no reduction
O=c1[nH]cc(F)c(=O)[nH]1 [5-fluorouracil],biodegradability in the ZWT,[4],not biodegradable
same,biodegradability in the CBT,[5],not biodegradable
CN(C)CCn1nnnc1SCC1=C(C(=O)O)N2C(=O)[C@@H](NC(=O)Cc3csc(N)n3)[C@H]2SC1 [cefotiam],biodegradability in the CBT,[5],None of the test compounds met the criteria for ready biodegradability
O=C(O)c1cn(C2CC2)c2cc(N3CCNCC3)c(F)cc2c1=O [ciprofloxacin],biodegradability,[11],none of the compounds were biodegraded
same,biodegradability in the CBT,[5],None of the test compounds met the criteria for ready biodegradability
O=S=O [sulfur dioxide],fecal coliforms in treated effluent,fecal coliforms,< 2 MPN
C=C[C@H]1C[N@@]2CC[C@H]1C[C@H]2[C@H](O)c1ccnc2ccc(OC)cc12 [quinine sulfate],predicted sorption potential,[12],high capacity to bind to solids
Cc1cccc(Nc2ccccc2C(=O)O)c1C [mefenamic acid],predicted sorption potential,[12],high capacity to bind to solids
Oc1ccc(Cl)c2cccnc12 [cloxiquin],light sensitivity,[6],light sensitive
CC(=O)Nc1c(I)c(NC(C)=O)c(I)c(C(=O)O)c1I [diatrizoate],degradation or absorption during sewage treatment,[8],not significantly degraded or absorbed
COCC(=O)Nc1c(I)c(C(=O)NCC(O)CO)c(I)c(C(=O)N(C)CC(O)CO)c1I (stereo not shown) [iopromide],degradation or absorption during sewage treatment,[8],not significantly degraded or absorbed
same,photodegradation,[13],amenable to photodegradation
S=C1SCN(Cc2ccccc2)CN1Cc1ccccc1 [sulbentine],light sensitivity,[6],light sensitive
"CN(CC(O)CO)C(=O)c1c(I)c(N)c(I)c(C(=O)NCC(O)CO)c1I (stereo not shown) [5-amino-N,N′bis(2,3-dihydroxypropyl)-2,4,6-triiodo-N-methyliso-phthalamide]",photodegradation,[13],faster rate of photolysis than the parent compound
C[C@@H](O)[C@H]1C(=O)N2C(C(=O)O)=C(S[C@@H]3CN[C@H](C(=O)N(C)C)C3)[C@H](C)[C@H]12 [meropenem],biodegradability in the CBT,[5],None of the test compounds met the criteria for ready biodegradability
O=C(O)c1ccccc1O [salicylic acid],biodegradability,[14],biodegradable
Nc1ccn([C@@H]2O[C@H](CO)[C@@H](O)C2(F)F)c(=O)n1 [gemcitabine],"degree of biodegradation, test prolonged","[4]; prolonged to 40 days, test read from the sentence before",80%
same,"biodegradation in the CBT, test prolonged",[5],45%
CC(=O)Nc1ccc(O)cc1 [paracetamol],biodegradability,[14],biodegradable
